Source: ChEMBL document CHEMBL1151011, “Heterocyclic analogs of the benzolactam nucleus of the non-peptidic growth hormone secretagogue L-692,429” (1995)
Active and inactive are the calls of the source. The calls are words filed in the database; no cut-off is given here.

Species: Rattus norvegicus
Assay: Effective dose of compound required for in vitro effect on growth hormone release was measured in rat pituitary cell assay
Format: functional, Pituitary gland cell
Details: Rattus norvegicus, Pituitary gland cell; read-out: ED50 (the source's name)

Row | SMILES | EC50 [nM]
1 | CC(C)(N)CC(=O)N[C@@H]1CS(=O)(=O)c2ccccc2N(Cc2ccc(-c3ccccc3-c3nn[nH]n3)cc2)C1=O | 1000
2 | CC(C)(N)CC(=O)NC1CCc2ccccc2N(Cc2ccc(-c3ccccc3-c3nn[nH]n3)cc2)C1=O [L-158432] | 120
3 | CC(C)(N)CC(=O)N[C@@H]1CC(=O)c2ccccc2N(Cc2ccc(-c3ccccc3-c3nn[nH]n3)cc2)C1=O | 2700
4 | CC(C)(N)CC(=O)N[C@@H]1CSc2ccccc2N(Cc2ccc(-c3ccccc3-c3nn[nH]n3)cc2)C1=O | 100
5 | CC(C)(N)CC(=O)N[C@@H]1COc2ccccc2N(Cc2ccc(-c3ccccc3-c3nn[nH]n3)cc2)C1=O | 120
6 | CC(C)(N)CC(=O)N[C@@H]1C[S+]([O-])c2ccccc2N(Cc2ccc(-c3ccccc3-c3nn[nH]n3)cc2)C1=O (stereo in doubt) | 3000
7 | CC(C)(N)CC(=O)N[C@@H]1CCc2ccccc2N(Cc2ccc(-c3ccccc3-c3nn[nH]n3)cc2)C1=O | 60
8 | CC(C)(N)CC(=O)NC1Cc2ccccc2N(Cc2ccc(-c3ccccc3-c3nn[nH]n3)cc2)C1=O (configuration not stated) | 2000
9 | CC(C)(N)CC(=O)NC1Sc2ccccc2N(Cc2ccc(-c3ccccc3-c3nn[nH]n3)cc2)C1=O (configuration not stated) | 500
10 | CC(C)(N)CC(=O)N[C@@H]1CC(O)c2ccccc2N(Cc2ccc(-c3ccccc3-c3nn[nH]n3)cc2)C1=O (some centres not stated) | 4000

Same assay, conditions: read-out: ED50 (the source's name)

Row | SMILES | EC50 [nM]
11 | CC(C)(N)CC(=O)N[C@@H]1C[S+]([O-])c2ccccc2N(Cc2ccc(-c3ccccc3-c3nn[nH]n3)cc2)C1=O (stereo in doubt; 22a) | 4000

Species: Rattus norvegicus
Assay: Effective dose of compound required for in vitro effect on growth hormone release was measured in rat pituitary cell assay; IA means compound is inactive at 20 ug/mL concentration
Format: functional
Details: Pituitary gland cell

Row | SMILES | ED50
12 | CC1=NC(NC(=O)CC(C)(C)N)C(=O)N(Cc2ccc(-c3ccccc3-c3nn[nH]n3)cc2)c2ccccc21 (configuration not stated) | inactive
